melting point: > 220 °C
Compound: O=c1ccc(S(=O)(=O)c2cccc(Br)c2)n[nH]1 [Example 4I, 6-(3-Bromo-benzenesulfonyl)-2H-pyridazin-3-one]
